How the values were obtained:
Assay in all cases: Eurofins kinase selectivity profile against 380 other human recombinant kinases (Table S2)
Type in all cases: biochemical
[1] = target: T1, 380 human recombinant protein kinases (Homo sapiens, UniProt Q92630); details: DYRK2(h), read-out: Inhibition rate
T1 construct: purchased Eurofins (Celle Lévescault)
T1 sequence (Q92630 1-601): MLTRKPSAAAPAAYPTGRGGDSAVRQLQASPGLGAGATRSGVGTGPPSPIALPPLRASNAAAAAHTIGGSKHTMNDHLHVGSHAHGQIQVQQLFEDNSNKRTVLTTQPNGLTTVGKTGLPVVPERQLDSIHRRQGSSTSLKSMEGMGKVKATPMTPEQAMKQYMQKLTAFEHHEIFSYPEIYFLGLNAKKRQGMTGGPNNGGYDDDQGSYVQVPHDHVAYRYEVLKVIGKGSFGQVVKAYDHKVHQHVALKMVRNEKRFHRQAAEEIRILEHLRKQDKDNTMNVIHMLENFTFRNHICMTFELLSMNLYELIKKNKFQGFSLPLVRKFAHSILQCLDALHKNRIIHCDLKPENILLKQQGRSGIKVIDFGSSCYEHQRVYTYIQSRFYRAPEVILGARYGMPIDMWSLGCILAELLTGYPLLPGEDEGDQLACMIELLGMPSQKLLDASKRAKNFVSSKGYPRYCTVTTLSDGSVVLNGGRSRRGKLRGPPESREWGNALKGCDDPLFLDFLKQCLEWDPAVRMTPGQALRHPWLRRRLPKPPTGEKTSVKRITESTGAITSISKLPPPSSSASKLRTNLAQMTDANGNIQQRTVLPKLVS
Experimental: (§1) Subsequently, to ascertain whether the high potency of compound 11 was specific for MK2, an additional 380 human recombinant protein kinases were screened.
(§2) To assess the impact of various compounds on MK2 kinase activity, we utilized the ADP‐Glo Assay Kit (Promega) following the manufacturer's instructions. Luminescence measurements were taken using a SpectraMax Paradigm reader. The inhibition percentage was calculated using the following formula: ((specific signalDMSO control − specific signal inhibitor)/(specific signalDMSO control)) × 100%. The IC50 values were determined employing dose–response curve fitting via Prism (Graph Pad). Additionally, Eurofins company (Celle Lévescault) conducted the analysis on compound 11’s inhibitory activity against 380 other human recombinant kinases at various concentrations.

[2] = target: T2, 380 human recombinant protein kinases (Homo sapiens, UniProt Q9HCP0); details: CK1γ1(h), read-out: Inhibition rate
T2 construct: purchased Eurofins (Celle Lévescault)
T2 sequence (Q9HCP0 whole entry): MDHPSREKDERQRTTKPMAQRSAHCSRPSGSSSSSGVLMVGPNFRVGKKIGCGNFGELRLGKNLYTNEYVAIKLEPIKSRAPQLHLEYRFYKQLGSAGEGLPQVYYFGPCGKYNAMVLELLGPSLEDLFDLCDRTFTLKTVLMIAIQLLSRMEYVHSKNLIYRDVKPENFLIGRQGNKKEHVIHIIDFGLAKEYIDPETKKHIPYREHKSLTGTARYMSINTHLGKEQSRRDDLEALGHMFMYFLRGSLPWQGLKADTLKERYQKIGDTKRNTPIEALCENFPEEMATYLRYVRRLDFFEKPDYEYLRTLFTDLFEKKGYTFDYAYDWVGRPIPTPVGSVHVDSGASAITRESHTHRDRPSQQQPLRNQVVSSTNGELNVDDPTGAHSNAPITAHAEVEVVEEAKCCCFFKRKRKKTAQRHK
Experimental: as §1, §2

[3] = target: T3, 380 human recombinant protein kinases (Homo sapiens, UniProt Q96NX5); details: CaMKIγ(h), read-out: Inhibition rate
T3 construct: purchased Eurofins (Celle Lévescault)
T3 sequence (Q96NX5 whole entry): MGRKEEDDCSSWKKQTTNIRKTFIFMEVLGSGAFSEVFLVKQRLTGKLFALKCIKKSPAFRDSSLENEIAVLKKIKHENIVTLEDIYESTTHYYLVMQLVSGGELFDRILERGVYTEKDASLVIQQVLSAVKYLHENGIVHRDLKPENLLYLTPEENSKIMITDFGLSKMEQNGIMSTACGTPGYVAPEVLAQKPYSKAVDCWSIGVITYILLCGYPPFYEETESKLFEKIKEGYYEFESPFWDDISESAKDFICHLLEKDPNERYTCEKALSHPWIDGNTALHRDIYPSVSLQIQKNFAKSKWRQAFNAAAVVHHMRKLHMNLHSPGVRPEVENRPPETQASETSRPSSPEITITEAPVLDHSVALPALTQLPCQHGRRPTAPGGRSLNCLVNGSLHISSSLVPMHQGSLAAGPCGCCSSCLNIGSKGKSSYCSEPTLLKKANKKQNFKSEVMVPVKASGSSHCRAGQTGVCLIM
Experimental: as §1, §2

[4] = target: T4, 380 human recombinant protein kinases (Homo sapiens, UniProt P48729); details: CK1α(h), read-out: Inhibition rate
T4 construct: purchased Eurofins (Celle Lévescault)
T4 sequence (P48729 whole entry): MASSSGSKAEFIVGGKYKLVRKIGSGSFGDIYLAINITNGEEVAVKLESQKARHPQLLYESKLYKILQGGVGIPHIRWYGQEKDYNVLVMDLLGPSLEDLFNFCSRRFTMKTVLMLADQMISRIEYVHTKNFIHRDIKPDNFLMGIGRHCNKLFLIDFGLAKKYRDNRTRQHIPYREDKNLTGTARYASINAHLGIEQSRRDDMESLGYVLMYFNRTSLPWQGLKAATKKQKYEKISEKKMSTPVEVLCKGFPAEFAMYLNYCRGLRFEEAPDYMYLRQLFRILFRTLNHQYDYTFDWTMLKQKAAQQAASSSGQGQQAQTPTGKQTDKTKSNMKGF
Experimental: as §1, §2

[5] = target: T5, 380 human recombinant protein kinases (Homo sapiens, UniProt P30530); details: Axl(h), read-out: Inhibition rate
T5 construct: purchased Eurofins (Celle Lévescault)
T5 sequence (P30530 26-894): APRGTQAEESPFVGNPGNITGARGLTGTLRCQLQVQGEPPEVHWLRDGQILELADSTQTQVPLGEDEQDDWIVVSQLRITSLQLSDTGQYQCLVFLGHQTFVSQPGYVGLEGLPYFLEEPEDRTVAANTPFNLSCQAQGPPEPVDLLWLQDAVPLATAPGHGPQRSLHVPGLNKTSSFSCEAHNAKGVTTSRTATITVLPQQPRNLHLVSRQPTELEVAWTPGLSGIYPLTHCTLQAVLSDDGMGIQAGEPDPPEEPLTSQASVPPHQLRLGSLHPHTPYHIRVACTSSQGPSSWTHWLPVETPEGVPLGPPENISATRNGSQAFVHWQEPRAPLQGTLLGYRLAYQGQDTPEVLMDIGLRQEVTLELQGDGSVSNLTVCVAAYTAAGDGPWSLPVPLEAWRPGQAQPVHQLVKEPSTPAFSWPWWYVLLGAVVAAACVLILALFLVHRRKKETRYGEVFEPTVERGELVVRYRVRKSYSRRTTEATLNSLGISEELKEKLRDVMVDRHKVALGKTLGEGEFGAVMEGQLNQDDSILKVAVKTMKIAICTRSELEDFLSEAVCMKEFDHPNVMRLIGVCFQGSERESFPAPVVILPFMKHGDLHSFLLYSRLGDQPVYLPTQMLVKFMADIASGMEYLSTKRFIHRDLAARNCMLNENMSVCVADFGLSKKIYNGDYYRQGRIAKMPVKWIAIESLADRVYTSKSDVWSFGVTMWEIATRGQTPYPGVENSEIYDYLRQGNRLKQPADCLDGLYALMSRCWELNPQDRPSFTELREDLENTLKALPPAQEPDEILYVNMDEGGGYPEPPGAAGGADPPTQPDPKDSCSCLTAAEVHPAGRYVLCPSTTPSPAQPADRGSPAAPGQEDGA
Experimental: as §1, §2

[6] = target: T6, 380 human recombinant protein kinases (Homo sapiens, UniProt Q14004); details: CDK13/cyclinK(h), read-out: Inhibition rate
T6 construct: purchased Eurofins (Celle Lévescault)
T6 sequence (Q14004 whole entry): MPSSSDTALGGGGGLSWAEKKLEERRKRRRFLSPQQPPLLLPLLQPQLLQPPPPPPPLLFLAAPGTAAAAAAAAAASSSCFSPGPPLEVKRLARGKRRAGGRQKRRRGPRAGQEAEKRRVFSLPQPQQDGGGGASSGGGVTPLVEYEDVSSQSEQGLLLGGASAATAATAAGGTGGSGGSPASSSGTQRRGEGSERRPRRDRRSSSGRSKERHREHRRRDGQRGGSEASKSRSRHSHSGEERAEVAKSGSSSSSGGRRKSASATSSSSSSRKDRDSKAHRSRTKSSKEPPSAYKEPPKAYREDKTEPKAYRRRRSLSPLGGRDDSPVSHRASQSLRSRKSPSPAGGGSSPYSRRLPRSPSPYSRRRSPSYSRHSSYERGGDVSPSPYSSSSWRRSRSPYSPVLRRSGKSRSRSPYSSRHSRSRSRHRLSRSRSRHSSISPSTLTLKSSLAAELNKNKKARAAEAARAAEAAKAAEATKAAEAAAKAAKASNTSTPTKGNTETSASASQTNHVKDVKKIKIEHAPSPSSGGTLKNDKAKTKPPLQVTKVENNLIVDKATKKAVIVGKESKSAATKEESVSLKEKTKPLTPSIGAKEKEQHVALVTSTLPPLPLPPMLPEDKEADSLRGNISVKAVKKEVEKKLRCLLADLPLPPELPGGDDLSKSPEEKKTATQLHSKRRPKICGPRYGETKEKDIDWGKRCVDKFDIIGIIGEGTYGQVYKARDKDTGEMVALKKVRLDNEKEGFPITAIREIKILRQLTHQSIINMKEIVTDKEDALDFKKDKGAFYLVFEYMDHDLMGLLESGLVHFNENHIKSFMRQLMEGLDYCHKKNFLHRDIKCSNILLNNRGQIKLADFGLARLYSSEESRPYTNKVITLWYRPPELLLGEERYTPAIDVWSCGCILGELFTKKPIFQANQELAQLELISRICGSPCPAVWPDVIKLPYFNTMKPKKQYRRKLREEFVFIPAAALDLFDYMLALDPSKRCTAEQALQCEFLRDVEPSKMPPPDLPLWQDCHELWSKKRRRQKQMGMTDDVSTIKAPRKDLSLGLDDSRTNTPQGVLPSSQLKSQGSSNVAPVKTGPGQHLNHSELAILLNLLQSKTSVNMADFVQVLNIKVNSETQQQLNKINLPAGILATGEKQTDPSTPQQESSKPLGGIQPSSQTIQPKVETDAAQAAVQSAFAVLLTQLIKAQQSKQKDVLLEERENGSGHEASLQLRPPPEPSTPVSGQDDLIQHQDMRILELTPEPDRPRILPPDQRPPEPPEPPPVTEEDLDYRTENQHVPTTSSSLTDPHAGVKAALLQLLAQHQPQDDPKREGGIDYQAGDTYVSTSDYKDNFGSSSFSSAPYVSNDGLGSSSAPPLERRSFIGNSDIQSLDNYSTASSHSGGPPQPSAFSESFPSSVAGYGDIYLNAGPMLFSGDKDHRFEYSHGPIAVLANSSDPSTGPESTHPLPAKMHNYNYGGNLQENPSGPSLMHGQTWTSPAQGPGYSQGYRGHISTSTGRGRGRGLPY
Experimental: as §1, §2

[7] = target: T7, 380 human recombinant protein kinases (Homo sapiens, UniProt P51451); details: Blk(h), read-out: Inhibition rate
T7 construct: purchased Eurofins (Celle Lévescault)
T7 sequence (P51451 whole entry): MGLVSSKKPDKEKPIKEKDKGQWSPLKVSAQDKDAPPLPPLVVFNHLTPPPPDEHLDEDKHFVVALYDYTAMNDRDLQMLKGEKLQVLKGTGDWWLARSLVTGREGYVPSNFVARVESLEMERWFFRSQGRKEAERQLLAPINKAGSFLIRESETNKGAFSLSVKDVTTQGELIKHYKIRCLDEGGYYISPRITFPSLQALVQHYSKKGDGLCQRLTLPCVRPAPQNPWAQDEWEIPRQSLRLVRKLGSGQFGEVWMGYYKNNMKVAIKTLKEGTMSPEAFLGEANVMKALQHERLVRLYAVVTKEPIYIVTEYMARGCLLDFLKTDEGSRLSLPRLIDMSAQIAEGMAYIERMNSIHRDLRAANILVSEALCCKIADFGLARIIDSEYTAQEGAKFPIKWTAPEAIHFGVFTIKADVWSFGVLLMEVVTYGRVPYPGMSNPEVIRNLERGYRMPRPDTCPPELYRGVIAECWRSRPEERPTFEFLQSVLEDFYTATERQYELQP
Experimental: as §1, §2

[8] = target: T8, 380 human recombinant protein kinases (Homo sapiens, UniProt Q15831); details: LKB1(h), read-out: Inhibition rate
T8 construct: purchased Eurofins (Celle Lévescault)
T8 sequence (Q15831 1-433): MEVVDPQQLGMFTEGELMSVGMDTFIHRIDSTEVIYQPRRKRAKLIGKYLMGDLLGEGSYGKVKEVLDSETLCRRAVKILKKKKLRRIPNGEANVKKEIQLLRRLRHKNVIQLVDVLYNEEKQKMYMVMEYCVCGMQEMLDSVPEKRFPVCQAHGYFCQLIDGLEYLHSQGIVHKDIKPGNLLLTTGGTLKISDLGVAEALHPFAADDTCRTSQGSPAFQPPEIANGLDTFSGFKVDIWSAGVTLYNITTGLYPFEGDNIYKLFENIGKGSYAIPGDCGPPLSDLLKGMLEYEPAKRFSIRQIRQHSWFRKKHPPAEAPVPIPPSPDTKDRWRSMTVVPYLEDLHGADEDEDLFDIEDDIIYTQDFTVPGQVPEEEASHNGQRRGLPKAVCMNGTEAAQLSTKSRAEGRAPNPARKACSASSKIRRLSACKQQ
Experimental: as §1, §2

C=CC(=O)Nc1cc(-c2cc(-c3cc4c([nH]3)CCNC4=O)ccn2)ccc1OC(F)(F)F [compound 11]
inhibition at 0.01 µM ([1]; 10 nM): 16%
inhibition at 0.1 µM ([1]; 100 nM): 67%
inhibition at 1 µM ([1]; 1000 nM): 98%
inhibition at 0.01 µM ([2]; 10 nM): 0%
inhibition at 0.1 µM ([2]; 100 nM): 14%
inhibition at 1 µM ([2]; 1000 nM): 56%
inhibition at 0.01 µM ([3]; 10 nM): -9%
inhibition at 0.1 µM ([3]; 100 nM): -14%
inhibition at 1 µM ([3]; 1000 nM): -15%
inhibition at 0.01 µM ([4]; 10 nM): 15%
inhibition at 0.1 µM ([4]; 100 nM): 30%
inhibition at 1 µM ([4]; 1000 nM): 70%
inhibition at 0.01 µM ([5]; 10 nM): -21%
inhibition at 0.1 µM ([5]; 100 nM): -6%
inhibition at 1 µM ([5]; 1000 nM): 26%
inhibition at 0.01 µM ([6]; 10 nM): 1%
inhibition at 0.1 µM ([6]; 100 nM): 7%
inhibition at 1 µM ([6]; 1000 nM): 9%
inhibition at 0.01 µM ([7]; 10 nM): 13%
inhibition at 0.1 µM ([7]; 100 nM): 4%
inhibition at 1 µM ([7]; 1000 nM): 12%
inhibition at 0.01 µM ([8]; 10 nM): -5%
inhibition at 0.1 µM ([8]; 100 nM): -3%
inhibition at 1 µM ([8]; 1000 nM): -6%
